Laboratory results from PubChem BioAssay AID2060493 (Molecular Pharmacology Branch, DTP, NCI, 2025).

System: 616215-338-R-J1-PDC tumor spheroids, viability
Test: Anticancer human tumor 616215-338-R-J1-PDC patient-derived colon adenocarcinoma cell line growth inhibition [GQUAD]
Details: spheroids with HUVEC and MSC; for IC50: curve of first compound; for viability, T/C: stronger effect = lower value
In short: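 Multi-cell-type spheroids of tumor cells with HUVEC and mesenchymal stem cells, treated with drug combinations. Concentrations descend in half-log steps from near clinical Cmax, or from 10 microM where Cmax is unknown; viability read-out.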

[1] = second compound 0.0316 µM, first compound 0.0316 µM
[2] = second compound 0.0316 µM, first compound 0.1 µM
[3] = second compound 0.0316 µM, first compound 0.316 µM
[4] = second compound 0.0316 µM, first compound 1 µM
[5] = second compound 0.0316 µM, first compound 3.16 µM
[6] = second compound 0.0316 µM, first compound 10 µM
[7] = second compound 0.1 µM, first compound 0.0316 µM
[8] = second compound 0.1 µM, first compound 0.1 µM
[9] = second compound 0.1 µM, first compound 0.316 µM
[10] = second compound 0.1 µM, first compound 1 µM
[11] = second compound 0.1 µM, first compound 3.16 µM
[12] = second compound 0.1 µM, first compound 10 µM
[13] = second compound 0.316 µM, first compound 0.0316 µM
[14] = second compound 0.316 µM, first compound 0.1 µM
[15] = second compound 0.316 µM, first compound 0.316 µM
[16] = second compound 0.316 µM, first compound 1 µM
[17] = second compound 0.316 µM, first compound 3.16 µM
[18] = second compound 0.316 µM, first compound 10 µM
[19] = second compound 1 µM, first compound 0.0316 µM
[20] = second compound 1 µM, first compound 0.1 µM
[21] = second compound 1 µM, first compound 0.316 µM
[22] = second compound 1 µM, first compound 1 µM
[23] = second compound 1 µM, first compound 3.16 µM
[24] = second compound 1 µM, first compound 10 µM
[25] = second compound 3.16 µM, first compound 0.0316 µM
[26] = second compound 3.16 µM, first compound 0.1 µM
[27] = second compound 3.16 µM, first compound 0.316 µM
[28] = second compound 3.16 µM, first compound 1 µM
[29] = second compound 3.16 µM, first compound 3.16 µM
[30] = second compound 3.16 µM, first compound 10 µM
[31] = second compound 10 µM, first compound 0.0316 µM
[32] = second compound 10 µM, first compound 0.1 µM
[33] = second compound 10 µM, first compound 0.316 µM
[34] = second compound 10 µM, first compound 1 µM
[35] = second compound 10 µM, first compound 3.16 µM
[36] = second compound 10 µM, first compound 10 µM
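Further: spheroids exposed to agents for 7 days before readout.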
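Wherever viability, T/C is given: percent viability relative to DMSO vehicle control wells taken as 100%.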

Q: Which results are given for `C#Cc1c(F)ccc2cc(O)cc(-c3ncc4c(N5CC6CCC(C5)N6)nc(OCC56CCCN5CC(F)C6)nc4c3F)c12` (stereo not drawn) + CN(C)c1ccc(Nc2c3ccc(NC(=O)CCN4CCCC4)cc3nc3cc(NC(=O)CCN4CCCC4)ccc23)cc1?
A: IC50 (second compound 0.0316 µM): > 10000 nM; IC50 (second compound 0.1 µM): 9070 nM; IC50 (second compound 0.316 µM): > 10000 nM; IC50 (second compound 1 µM): 9220 nM; IC50 (second compound 3.16 µM): 8570 nM; IC50 (second compound 10 µM): 3020 nM; viability, T/C [1]: 91.1%; viability, T/C [2]: 103%; viability, T/C [3]: 102%; viability, T/C [4]: 113%; viability, T/C [5]: 108%; viability, T/C [6]: 61.4%; viability, T/C [7]: 103%; viability, T/C [8]: 105%; viability, T/C [9]: 111%; viability, T/C [10]: 111%; viability, T/C [11]: 105%; viability, T/C [12]: 44.9%; viability, T/C [13]: 106%; viability, T/C [14]: 109%; viability, T/C [15]: 110%; viability, T/C [16]: 105%; viability, T/C [17]: 90.4%; viability, T/C [18]: 64.3%; viability, T/C [19]: 109%; viability, T/C [20]: 100%; viability, T/C [21]: 106%; viability, T/C [22]: 105%; viability, T/C [23]: 98%; viability, T/C [24]: 46.3%; viability, T/C [25]: 109%; viability, T/C [26]: 86.8%; viability, T/C [27]: 100%; viability, T/C [28]: 93.5%; viability, T/C [29]: 106%; viability, T/C [30]: 42.3%; viability, T/C [31]: 99.4%; viability, T/C [32]: 79.6%; viability, T/C [33]: 94.2%; viability, T/C [34]: 67.5%; viability, T/C [35]: 50.1%; viability, T/C [36]: 22.4%

Q: Which IC50 (second compound 0.0316 µM) does the source give for `CC(=O)O[C@H]1C(=O)[C@@]2(C)[C@H]([C@H](OC(=O)c3ccccc3)[C@]3(O)C[C@H](OC(=O)[C@H](O)[C@@H](NC(=O)c4ccccc4)c4ccccc4)C(C)=C1C3(C)C)[C@]1(OC(C)=O)CO[C@@H]1C[C@@H]2O` + CN(C)c1ccc(Nc2c3ccc(NC(=O)CCN4CCCC4)cc3nc3cc(NC(=O)CCN4CCCC4)ccc23)cc1 here?
A: < 31.6 nM

Q: What about the IC50 (second compound 0.1 µM) of the same molecule?
A: < 31.6 nM

Q: What about the IC50 (second compound 0.316 µM) of the same molecule?
A: < 31.6 nM

Q: And the IC50 (second compound 1 µM)?
A: < 31.6 nM

Q: What about the IC50 (second compound 3.16 µM) of the same molecule?
A: < 31.6 nM

Q: What about the IC50 (second compound 10 µM) of the same molecule?
A: < 31.6 nM

Q: What about the viability, T/C [1] of the same molecule?
A: 28.9%

Q: What about the viability, T/C [2] of the same molecule?
A: 20.4%

Q: What about the viability, T/C [3] of the same molecule?
A: 18.1%

Q: What about the viability, T/C [4] of the same molecule?
A: 14.6%

Q: And the viability, T/C [5]?
A: 12.1%

Q: What about the viability, T/C [6] of the same molecule?
A: 13.2%

Q: And the viability, T/C [7]?
A: 24.7%

Q: What about the viability, T/C [8] of the same molecule?
A: 19.5%

Q: What about the viability, T/C [9] of the same molecule?
A: 16.4%

Q: And the viability, T/C [10]?
A: 14%

Q: What about the viability, T/C [11] of the same molecule?
A: 12.8%

Q: What about the viability, T/C [12] of the same molecule?
A: 11.4%

Q: What about the viability, T/C [13] of the same molecule?
A: 41.4%

Q: And the viability, T/C [14]?
A: 22.1%

Q: What about the viability, T/C [15] of the same molecule?
A: 14.8%

Q: And the viability, T/C [16]?
A: 10.8%

Q: And the viability, T/C [17]?
A: 12.3%

Q: And the viability, T/C [18]?
A: 14.2%

Q: And the viability, T/C [19]?
A: 34%

Q: What about the viability, T/C [20] of the same molecule?
A: 15%

Q: And the viability, T/C [21]?
A: 16%

Q: And the viability, T/C [22]?
A: 8.58%

Q: And the viability, T/C [23]?
A: 16.5%

Q: And the viability, T/C [24]?
A: 12.9%

Q: And the viability, T/C [25]?
A: 28.6%

Q: And the viability, T/C [26]?
A: 14.3%

Q: What about the viability, T/C [27] of the same molecule?
A: 15.3%

Q: And the viability, T/C [28]?
A: 11.1%

Q: What about the viability, T/C [29] of the same molecule?
A: 11.2%

Q: And the viability, T/C [30]?
A: 11.8%

Q: What about the viability, T/C [31] of the same molecule?
A: 26.2%

Q: And the viability, T/C [32]?
A: 16.4%

Q: What about the viability, T/C [33] of the same molecule?
A: 17.4%

Q: What about the viability, T/C [34] of the same molecule?
A: 12.2%

Q: What about the viability, T/C [35] of the same molecule?
A: 9.14%

Q: What about the viability, T/C [36] of the same molecule?
A: 11.9%

Q: What does the source list for `COc1cccc2c1C(=O)c1c(O)c3c(c(O)c1C2=O)CC(O)(C(=O)CO)CC3OC1CC(N)C(O)C(C)O1` (stereo not drawn) + CN(C)c1ccc(Nc2c3ccc(NC(=O)CCN4CCCC4)cc3nc3cc(NC(=O)CCN4CCCC4)ccc23)cc1?
A: IC50 (second compound 0.0316 µM): 467 nM; IC50 (second compound 0.1 µM): 511 nM; IC50 (second compound 0.316 µM): 483 nM; IC50 (second compound 1 µM): 469 nM; IC50 (second compound 3.16 µM): 511 nM; IC50 (second compound 10 µM): 348 nM; viability, T/C [1]: 101%; viability, T/C [2]: 88%; viability, T/C [3]: 51.7%; viability, T/C [4]: 36.2%; viability, T/C [5]: 17.7%; viability, T/C [6]: 1.14%; viability, T/C [7]: 101%; viability, T/C [8]: 92.3%; viability, T/C [9]: 47.3%; viability, T/C [10]: 41.3%; viability, T/C [11]: 20.1%; viability, T/C [12]: 0.23%; viability, T/C [13]: 105%; viability, T/C [14]: 90.8%; viability, T/C [15]: 49.3%; viability, T/C [16]: 38%; viability, T/C [17]: 20.1%; viability, T/C [18]: 0.36%; viability, T/C [19]: 102%; viability, T/C [20]: 77.8%; viability, T/C [21]: 53.3%; viability, T/C [22]: 36%; viability, T/C [23]: 19.9%; viability, T/C [24]: 1.11%; viability, T/C [25]: 97.6%; viability, T/C [26]: 87.2%; viability, T/C [27]: 46.3%; viability, T/C [28]: 45.4%; viability, T/C [29]: 19.6%; viability, T/C [30]: 3.39%; viability, T/C [31]: 101%; viability, T/C [32]: 78%; viability, T/C [33]: 48.9%; viability, T/C [34]: 30.5%; viability, T/C [35]: 20.5%; viability, T/C [36]: 2.68%

Q: For `Nc1ccn(C2OC(CO)C(O)C2(F)F)c(=O)n1` (stereo not drawn) + CN(C)c1ccc(Nc2c3ccc(NC(=O)CCN4CCCC4)cc3nc3cc(NC(=O)CCN4CCCC4)ccc23)cc1, which IC50 (second compound 0.0316 µM) is on record?
A: < 31.6 nM

Q: What about the IC50 (second compound 0.1 µM) of the same molecule?
A: < 31.6 nM

Q: What about the IC50 (second compound 0.316 µM) of the same molecule?
A: < 31.6 nM

Q: What about the IC50 (second compound 1 µM) of the same molecule?
A: < 31.6 nM

Q: What about the IC50 (second compound 3.16 µM) of the same molecule?
A: < 31.6 nM

Q: And the IC50 (second compound 10 µM)?
A: < 31.6 nM

Q: What about the viability, T/C [1] of the same molecule?
A: 39.4%

Q: And the viability, T/C [2]?
A: 18.3%

Q: What about the viability, T/C [3] of the same molecule?
A: 11.6%

Q: What about the viability, T/C [4] of the same molecule?
A: 9.94%

Q: And the viability, T/C [5]?
A: 10.2%

Q: And the viability, T/C [6]?
A: 11.1%

Q: What about the viability, T/C [7] of the same molecule?
A: 39.2%

Q: What about the viability, T/C [8] of the same molecule?
A: 14.7%

Q: What about the viability, T/C [9] of the same molecule?
A: 12%

Q: And the viability, T/C [10]?
A: 9.37%

Q: And the viability, T/C [11]?
A: 10.9%

Q: And the viability, T/C [12]?
A: 8.91%

Q: What about the viability, T/C [13] of the same molecule?
A: 43.8%

Q: And the viability, T/C [14]?
A: 20.2%

Q: What about the viability, T/C [15] of the same molecule?
A: 11.3%

Q: And the viability, T/C [16]?
A: 7.36%

Q: What about the viability, T/C [17] of the same molecule?
A: 8.69%

Q: What about the viability, T/C [18] of the same molecule?
A: 10.9%

Q: And the viability, T/C [19]?
A: 34.6%

Q: What about the viability, T/C [20] of the same molecule?
A: 19.2%

Q: And the viability, T/C [21]?
A: 9.69%

Q: And the viability, T/C [22]?
A: 9.64%

Q: What about the viability, T/C [23] of the same molecule?
A: 11.7%

Q: What about the viability, T/C [24] of the same molecule?
A: 14.1%

Q: What about the viability, T/C [25] of the same molecule?
A: 45.3%

Q: What about the viability, T/C [26] of the same molecule?
A: 26%

Q: What about the viability, T/C [27] of the same molecule?
A: 12.3%

Q: What about the viability, T/C [28] of the same molecule?
A: 8.37%

Q: What about the viability, T/C [29] of the same molecule?
A: 11.2%

Q: And the viability, T/C [30]?
A: 9.17%

Q: What about the viability, T/C [31] of the same molecule?
A: 30.2%

Q: And the viability, T/C [32]?
A: 19.6%

Q: What about the viability, T/C [33] of the same molecule?
A: 7.93%

Q: What about the viability, T/C [34] of the same molecule?
A: 6.14%

Q: And the viability, T/C [35]?
A: 8.89%

Q: And the viability, T/C [36]?
A: 8.2%
